Results as given in patent US9377460B2 (priority 2009, dated 2016).

Experiments:
[1] = test system: IFN-gamma-secreting T cells; type: cell-based, human; details: for Proportion of responders to the Rv3615c peptide pool who respond to the individual peptide, LTBI % / Proportion of responders to the Rv3615c peptide pool who respond to the individual peptide, LTBI n: LTBI subjects; for Proportion of responders to the Rv3615c peptide pool who respond to the individual peptide, LTBI n / Proportion of responders to the Rv3615c peptide pool who respond to the individual peptide, Cases n: subjects responding/pool responders tested; for Proportion of responders to the Rv3615c peptide pool who respond to the individual peptide, Cases % / Proportion of responders to the Rv3615c peptide pool who respond to the individual peptide, Cases n: active TB cases
CD4-positive T cells = assay: FACS analysis following cytokine capture assay (IFN-gamma / IL-2); type: cell-based, human; details: subject T416 (LTBI), 6 hour stimulation

Sequence | Proportion of responders to the Rv3615c peptide pool who respond to the individual peptide, LTBI % [1] [%] | Proportion of responders to the Rv3615c peptide pool who respond to the individual peptide, LTBI n [1] | Proportion of responders to the Rv3615c peptide pool who respond to the individual peptide, Cases % [1] [%] | Proportion of responders to the Rv3615c peptide pool who respond to the individual peptide, Cases n [1] | CD4 T cells secreting IFN-gamma only, relative size of subset (CD4-positive T cells) | CD4 T cells secreting IL-2 only, relative size of subset (CD4-positive T cells) | CD4 T cells secreting both IFN-gamma and IL-2, relative size of subset (CD4-positive T cells)
NAAVDASSGVEAAAG (listed as Mycobacterium tuberculosis) [p5, 15mer peptide of Rv3615c] | 20 | 1/5 | 13 | 2/15 | – | – | –
RLGVLASHHDNAAVD (listed as Mycobacterium tuberculosis) [p3, 15mer peptide of Rv3615c] | 40 | 2/5 | 20 | 3/15 | – | – | –
ASSGVEAAAGLGESV (listed as Mycobacterium tuberculosis) [p6, 15mer peptide of Rv3615c] | 0 | 0/5 | 7 | 1/15 | – | – | –
AITHGPYCSQFNDTL (listed as Mycobacterium tuberculosis) [p9, 15mer peptide of Rv3615c] | 40 | 2/5 | 0 | 0/15 | – | – | –
IYSEADEAWRKAIDG (listed as Mycobacterium tuberculosis) [p18, 15mer peptide of Rv3615c] | 25 | 1/4 | 8 | 1/13 | – | – | –
DEAWRKAIDGLFT (listed as Mycobacterium tuberculosis) [p19, carboxy-terminal peptide of Rv3615c] | 25 | 1/4 | 15 | 2/13 | – | – | –
AHNALGSSLHTAGVD (listed as Mycobacterium tuberculosis) [p13, 15mer peptide of Rv3615c] | 0 | 0/4 | 21 | 3/14 | – | – | –
EAAAGLGESVAITHG (listed as Mycobacterium tuberculosis) [p7, 15mer peptide of Rv3615c] | 0 | 0/5 | 7 | 1/15 | – | – | –
PYCSQFNDTLNVYLT (listed as Mycobacterium tuberculosis) [p10, 15mer peptide of Rv3615c] | 40 | 2/5 | 40 | 6/15 | – | – | –
RIAAKIYSEADEAWR (listed as Mycobacterium tuberculosis) [p17, 15mer peptide of Rv3615c] | 50 | 2/2 | 38 | 5/13 | – | – | –
LAKSLRIAAKIYSEA (listed as Mycobacterium tuberculosis) [p16, 15mer peptide of Rv3615c] | 100 | 4/4 | 69 | 9/13 | smallest population | second largest population | dominant population
LGESVAITHGPYCSQ (listed as Mycobacterium tuberculosis) [p8, 15mer peptide of Rv3615c] | 0 | 0/5 | 7 | 1/15 | – | – | –
NVYLTAHNALGSSLH (listed as Mycobacterium tuberculosis) [p12, 15mer peptide of Rv3615c] | 40 | 2/5 | 43 | 6/14 | – | – | –
FNDTLNVYLTAHNAL (listed as Mycobacterium tuberculosis) [p11, 15mer peptide of Rv3615c] | 0 | 0/5 | 27 | 4/15 | – | – | –
MTENLTVQPERLGVL (listed as Mycobacterium tuberculosis) [p1, 15mer peptide of Rv3615c] | 0 | 0/5 | 7 | 1/15 | – | – | –
ASHHDNAAVDASSGV (listed as Mycobacterium tuberculosis) [p4, 15mer peptide of Rv3615c] | 20 | 1/5 | 13 | 2/15 | – | – | –
TVQPERLGVLASHHD (listed as Mycobacterium tuberculosis) [p2, 15mer peptide of Rv3615c] | 0 | 0/5 | 33 | 5/15 | – | – | –
TAGVDLAKSLRIAAK (listed as Mycobacterium tuberculosis) [p15, 15mer peptide of Rv3615c] | 50 | 2/4 | 71 | 10/14 | – | – | –
GSSLHTAGVDLAKSL (listed as Mycobacterium tuberculosis) [p14, 15mer peptide of Rv3615c] | 50 | 2/4 | 79 | 11/14 | smallest population | second largest population | dominant population
